Reference: US9278957B2, “Piperazine, piperidine and tetrahydropyridine derivatives and their pharmaceutical use” (ATIR Holding S.A., priority 2009, dated 2016)

Assays:
5-HT1A receptor = target: T1, 5-HT1A receptor (Homo sapiens, UniProt P08908); test: 5-HT1A receptor binding (inhibition of labeled ligand binding); details: compound at 1micrMol
T1 sequence (P08908 1-422): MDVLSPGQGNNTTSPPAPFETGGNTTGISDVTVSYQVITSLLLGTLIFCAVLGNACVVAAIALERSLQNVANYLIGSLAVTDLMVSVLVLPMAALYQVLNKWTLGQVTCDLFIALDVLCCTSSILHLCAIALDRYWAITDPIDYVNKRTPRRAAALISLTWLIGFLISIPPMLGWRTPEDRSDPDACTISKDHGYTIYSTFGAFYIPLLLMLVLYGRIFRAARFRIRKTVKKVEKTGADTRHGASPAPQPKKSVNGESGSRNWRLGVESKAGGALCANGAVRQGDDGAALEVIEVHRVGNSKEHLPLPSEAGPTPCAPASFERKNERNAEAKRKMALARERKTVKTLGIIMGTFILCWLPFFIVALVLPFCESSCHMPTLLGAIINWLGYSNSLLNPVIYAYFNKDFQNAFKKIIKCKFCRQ
Procedure: (§1) The compounds of the invention may be used in the treatment of CNS disorders in mammals, especially human. Of particular interest is the use of the compounds of the invention as anti-dyskinetic agents. Dyskinesia is a serious side effect associated with L-DOPA treatment of patients with Parkinson's disease.
(§2) The compounds of Examples 1, 3, 4 and 9 were tested for their 5-HT1A receptor binding activity and dopamine (D2, D3 and D4.4) receptors binding activity according to the protocols set forth above. The percentage inhibition of labeled ligand binding caused by the indicated few test ligand compound of the invention at different concentrations of said test ligand is shown in Table I.

dopamine D4.4 receptor = target: T2, dopamine D4.4 receptor (Homo sapiens, UniProt P21917); test: dopamine D4.4 receptor binding (inhibition of labeled ligand binding); details: compound at 1micrMol
T2 sequence (P21917 1-419): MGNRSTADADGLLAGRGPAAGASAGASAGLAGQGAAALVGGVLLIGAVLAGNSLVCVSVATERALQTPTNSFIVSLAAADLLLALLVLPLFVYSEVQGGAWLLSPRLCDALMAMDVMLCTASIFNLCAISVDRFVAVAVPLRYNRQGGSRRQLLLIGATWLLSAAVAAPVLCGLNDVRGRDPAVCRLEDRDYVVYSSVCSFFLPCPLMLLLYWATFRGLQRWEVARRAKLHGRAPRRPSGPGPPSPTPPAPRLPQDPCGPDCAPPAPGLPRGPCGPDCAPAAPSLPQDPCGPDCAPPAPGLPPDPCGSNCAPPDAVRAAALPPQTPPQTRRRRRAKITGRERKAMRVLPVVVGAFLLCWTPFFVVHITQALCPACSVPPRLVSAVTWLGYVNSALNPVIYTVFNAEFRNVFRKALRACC
Procedure: as §1, §2

dopamine D3 receptor = dopamine D3 receptor (Homo sapiens, UniProt P35462); test: dopamine D3 receptor binding (inhibition of labeled ligand binding); details: compound at 1micrMol
Procedure: as §1, §2

dopamine D2 receptor = dopamine D2 receptor (Homo sapiens, UniProt P14416); test: dopamine D2 receptor binding (inhibition of labeled ligand binding); details: compound at 1micrMol
Procedure: as §1, §2

[1] = test system: L-DOPA induced dyskinesia in parkinsonian rats; test: L-DOPA-induced abnormal involuntary movements (AIMS) in the 6-OHDA lesion rat model; type: in vivo
Procedure: In the following study, the compound of Example 2 was tested for its in vivo activity against L-DOpA induced dyskinesia in parkinsonian rats (the model is the L-DOPA-induced abnormal involuntary movements (AIMS) in the 6-hydroxydopamine (6-OHDA) lesion rat model).
Rats were unilaterally lesioned with (6-OHDA) in medial forebrain bundle. Three weeks later, rats were injected with apomorphine (0.1 mg/kg s.c.) and numbers of contralateral turns were counted using a rotameter. Two weeks after the apomorphine test, rats showing marked turning activity were selected and split into 2 groups:
The experimental group, which received the compound of Example 2, and the control group, which received the injection medium for said compound (CMC in saline); n=5 and 3 respectively.
All animals were treated daily with L-dopa/carbidopa (25/6 mg/kg respectively) and dyskinetic movements were scored commencing day 5. Compounds were administered in escalating dose, at daily doses shown below, commencing day 11 of L-dopa treatment: 1 mg/kg—11th day, 1 mg/kg—12th, 2 mg/kg—15th, 2 mg/kg—16th. On the 17th day, the rats of the control group were injected with propranolol (10 mg/kg in saline), whereas the rats of the experimental group were injected with saline. […]
The following dyskinetic movements were scored: dystonic posturing, head and upper body movements, forelimb, locomotion, trunk, orolingual.

dopamine D2 receptor, sequence (P14416 whole entry): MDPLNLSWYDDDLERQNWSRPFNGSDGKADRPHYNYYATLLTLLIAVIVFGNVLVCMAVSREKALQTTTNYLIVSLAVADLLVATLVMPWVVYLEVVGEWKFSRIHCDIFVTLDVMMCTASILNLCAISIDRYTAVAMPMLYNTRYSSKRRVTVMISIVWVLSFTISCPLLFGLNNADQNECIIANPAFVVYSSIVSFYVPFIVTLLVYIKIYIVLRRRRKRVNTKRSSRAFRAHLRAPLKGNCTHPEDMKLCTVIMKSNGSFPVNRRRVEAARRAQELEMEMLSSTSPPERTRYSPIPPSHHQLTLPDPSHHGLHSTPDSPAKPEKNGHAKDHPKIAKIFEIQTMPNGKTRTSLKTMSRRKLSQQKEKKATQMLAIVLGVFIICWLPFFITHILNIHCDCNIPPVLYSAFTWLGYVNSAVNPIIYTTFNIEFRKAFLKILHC
dopamine D3 receptor, sequence (P35462 whole entry): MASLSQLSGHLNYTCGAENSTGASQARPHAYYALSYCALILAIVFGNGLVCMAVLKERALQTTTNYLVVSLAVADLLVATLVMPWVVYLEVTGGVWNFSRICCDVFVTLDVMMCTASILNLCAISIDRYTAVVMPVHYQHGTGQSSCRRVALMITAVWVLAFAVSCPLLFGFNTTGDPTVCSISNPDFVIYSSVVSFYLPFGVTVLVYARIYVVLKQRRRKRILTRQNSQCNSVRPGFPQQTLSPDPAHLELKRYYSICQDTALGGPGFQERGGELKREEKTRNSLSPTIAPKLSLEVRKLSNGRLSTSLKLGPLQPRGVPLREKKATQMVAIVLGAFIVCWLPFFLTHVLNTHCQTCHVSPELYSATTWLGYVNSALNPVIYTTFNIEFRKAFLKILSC

c1ccc(C2CCN(Cc3cccc4c3oc3ccccc34)CC2)cc1 [Example L-105]
5-HT1A binding, percentage inhibition of labeled ligand binding (5-HT1A receptor): 42.2%
D4 binding, percentage inhibition of labeled ligand binding (dopamine D4.4 receptor): 69.1%
D3 binding, percentage inhibition of labeled ligand binding (dopamine D3 receptor): 44.5%
D2 binding, percentage inhibition of labeled ligand binding (dopamine D2 receptor): 93.8%

N#Cc1ccccc1N1CCN(Cc2cccc3c2oc2ccccc23)CC1 [Example L-109]
5-HT1A binding, percentage inhibition of labeled ligand binding (5-HT1A receptor): 73.5%
D4 binding, percentage inhibition of labeled ligand binding (dopamine D4.4 receptor): 64.9%
D3 binding, percentage inhibition of labeled ligand binding (dopamine D3 receptor): 63.2%
D2 binding, percentage inhibition of labeled ligand binding (dopamine D2 receptor): 68.7%

CC(C)NCC(O)COc1cccc2ccccc12 (stereo not drawn) [Propanolol, propranolol, reference compound]
effect on abnormal involuntary movements (AIM score) ([1]; 6-OHDA lesioned rats on L-dopa/carbidopa, control group, 10 mg/kg in saline on the 17th day): reduced the abnormal involuntary movements

Oc1cccc(N2CCN(Cc3cccc4c3oc3ccccc34)CC2)c1 [Example L-33]
5-HT1A binding, percentage inhibition of labeled ligand binding (5-HT1A receptor): 43.4%
D4 binding, percentage inhibition of labeled ligand binding (dopamine D4.4 receptor): 77.7%
D3 binding, percentage inhibition of labeled ligand binding (dopamine D3 receptor): 78.2%
anti-dyskinetic effect (AIM score, sum of all movements) ([1]; 6-OHDA lesioned rats on daily L-dopa/carbidopa 25/6 mg/kg, 16th day, second successive daily dose of 2 mg/kg): strong anti-dyskinetic effect
D2 binding, percentage inhibition of labeled ligand binding (dopamine D2 receptor): 75%

COc1ccccc1N1CCN(Cc2cccc3c2oc2ccccc23)CC1 [Example L-107]
5-HT1A binding, percentage inhibition of labeled ligand binding (5-HT1A receptor): 86.7%
D4 binding, percentage inhibition of labeled ligand binding (dopamine D4.4 receptor): 78%
D3 binding, percentage inhibition of labeled ligand binding (dopamine D3 receptor): 33.7%
D2 binding, percentage inhibition of labeled ligand binding (dopamine D2 receptor): 96%
